In the experiment the test system is GUMC-403. Put plainly: viability at highest tested concentration (max response) relative to DMSO (% of DMSO control); higher = less cytotoxic. The following applies: library / dose series: MIPE library, 11-point 1:3 dilution, 48 h. An outline of the steps: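 In 1536-well plates, 700 GUMC-403 papilloma cells per well, taken from a patient and grown by conditional reprogramming, were seeded in 5 μL F + Y medium and incubated overnight at 37 °C. Compounds were pinned in at 23 nL in an 11-point 1:3 series, and left for 48 h before CellTiter-Glo luminescence was read on a ViewLux against vehicle (100%) and empty (0%) wells. Reported values are viability at the highest tested concentration relative to vehicle control.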

Where the note is “top concentration 46.1 µM”, `NC1=NC=C(C=C1)C2=CC=C3N=CC\4=C(N(C(=O)\C=C4)C5=CC(=CC=C5)C(F)(F)F)C3=C2` had a viability of 43.7. Same read-out and setting: next, `COc1cc2ncnc(Nc3ccc(F)c(Cl)c3)c2cc1NC(=O)/C=C/CN1CCCCC1`: 63.8; `O=[N+]([O-])c1cn2c(n1)OC[C@@H](OCc1ccc(OC(F)(F)F)cc1)C2`: 111. `CCCN[S+](=O)([O-])Nc1ncnc(OCCOc2ncc(Br)cn2)c1-c1ccc(Br)cc1`: the viability (top concentration 46.1 µM) was 122.

Where the note is “top concentration 46.1 µM”, `NC(=O)c1ncn([C@@H]2O[C@H](CO)[C@@H](O)[C@H]2O)n1` came in with a viability of 99.6.

Regarding `O=C(C[C@@H]1C/C=C\CCC(=O)O[C@H](c2ccccc2)CNC1=O)NCc1ccc(Cl)cc1`, the viability (top concentration 46.1 µM) came to 97.5. Molecule `Nc1ccc([S+](=O)([O-])Nc2ncccn2)cc1` showed a viability (top concentration 46.1 µM) of 131. Still for that read-out and setting: next, `CCN1CCC(n2cc(CNc3cc(Cl)c4ncc(C#N)c(Nc5ccc(F)c(Cl)c5)c4c3)nn2)CC1`: 97; `C=CC[N+]1([C@H]2C[C@H]3[C@@H]4CC[C@H]5C[C@H](O)[C@@H](N6CCOCC6)C[C@]5(C)[C@H]4CC[C@]3(C)[C@H]2OC(C)=O)CCCC1`: 108.

In turn, `CCCCC(C)(C)[C@H](O)/C=C/[C@H]1[C@H](O)CC(=O)[C@@H]1C/C=C\CCCC(=O)O` yielded a viability (top concentration 46.1 µM) of 104. The same measure, in the same setting: for `C[S+](=O)([O-])c1cc(F)cc2c3c(n(Cc4ccc(Cl)cc4)c12)[C@@H](CC(=O)O)CC3` the value was 128; for `O=C(Nc1nc2ccccc2n1CCN1CCOCC1)c1cccc([N+](=O)[O-])c1`, 124. Same read-out and setting: next, `COc1ccccc1OCC(O)COC(N)=O` (centres undefined): 117; `S=P(N1CC1)(N1CC1)N1CC1`: 115; `NC(=O)Nc1sc(-c2ccc(F)cc2)cc1C(N)=O`: 51.7. On the same count and under the same terms, next, `[NH2][Pt]([NH2])([Cl])[Cl]`: 128. `C\C1=C\C(=O)C2=C(C=CC=C2)C1=O` showed a viability (top concentration 46.1 µM) of 109. On the same count and under the same terms, for `Clc1ccc(C(c2ccccc2Cl)C(Cl)Cl)cc1` (centres undefined) the value was 100. Same read-out and setting: next, `CCC[C@@H]1C[C@@H](C(=O)N[C@@H]([C@H]2O[C@H](SC)[C@H](O)[C@@H](O)[C@H]2O)[C@@H](C)O)N(C)C1.Cl`: 101; `Cc1cn2cc(C(=O)N(C)CCO)cc(N[C@@H]3CCOc4cccc(C)c43)c2n1`: 144; `Cc1cccc(-c2[nH]c(C(C)(C)C)nc2-c2ccc3c(c2)OCO3)n1`: 118. Still for that read-out and setting: for `CO[C@H]1C[C@@H]2CC[C@@H](C)[C@@](O)(O2)C(=O)C(=O)N2CCCC[C@H]2C(=O)O[C@H]([C@@H](C)C[C@@H]2CC[C@@H](O)[C@H](OC)C2)CC(=O)[C@H](C)/C=C(\C)[C@@H](O)[C@@H](OC)C(=O)[C@H](C)C[C@H](C)/C=C/C=C/C=C/1C` the value was 106; for `CN1C(=O)C[C@H](C(=O)N[C@@H](Cc2cnc[nH]2)C(=O)N2CCC[C@H]2C(N)=O)NC1=O`, 103. In turn, `Cc1cnc(Nc2ccc(CN3CCOCC3)cc2)nc1Nc1cccc([S+](=O)([O-])NC(C)(C)C)c1` returned a viability (top concentration 46.1 µM) of 31.1. Same read-out and setting: next, `CC(C)(C)C1=CC(=C(NC(=O)C/2=C/NC3=C(C=CC=C3)C2=O)C=C1O)C(C)(C)C`: 114; `Cc1c(C)c2c(c(C)c1O)CCC(C)(COc1ccc(CC3SC(=O)NC3=O)cc1)O2` (centres undefined): 82. On to `CC[C@H]1OC(=O)[C@H](C)[C@@H](O[C@H]2C[C@@](C)(OC)[C@@H](O)[C@H](C)O2)[C@H](C)[C@@H](O[C@@H]2O[C@H](C)C[C@H](N(C)C)[C@H]2O)[C@](C)(O)C[C@@H](C)CN(C)[C@H](C)[C@@H](O)[C@]1(C)O`, for which the viability (top concentration 46.1 µM) turned out to be 109. Same read-out and setting: next, `c1ccc(CNc2nc(N3CCOc4ccccc43)nc3c2CCCC3)cc1`: 131; `O=C(O)CC/C=C\CC[C@@H]1[C@@H](N2CCCCC2)[C@@H](O)C[C@@H]1OCc1ccc(-c2ccccc2)cc1`: 112.

For `COc1cc2ncnc(Nc3cccc(Cl)c3)c2cc1OC`, the viability (top concentration 46.1 µM) was determined as 98.8. On the same count and under the same terms, next, `Cc1ccc(-c2ncn(-c3ccc(Nc4nccc(-c5cccc(N6CCOCC6)c5)n4)cc3)n2)cn1`: 32. As for `C[C@H]1CN(C[C@@H](C)N1)C2=C(F)C3=C(C(=C2F)N)C(=O)\C(=C/N3C4CC4)C(O)=O`, the viability (top concentration 23 µM) was 133. Consider `COc1ccccc1OCC(O)CN1CCN(CC(=O)Nc2c(C)cccc2C)CC1` (centres undefined), for which the viability (top concentration 46.1 µM) stood at 130. The same measure, in the same setting: for `N#Cc1ccc(COC[C@H]2O[C@@H](n3c(NCc4ccc(Cl)c(Cl)c4)nc4c(N)ncnc43)[C@H](O)[C@@H]2O)cc1` the value was 89; for `O=C(Nc1ccncc1)C(=O)c1cn(Cc2ccc(Cl)cc2)c2ccccc12`, 112. For the molecule `OCCN(CCO)c1nc(N2CCCCC2)c2nc(N(CCO)CCO)nc(N3CCCCC3)c2n1`, the viability (top concentration 46.1 µM) came out at 77. The same measure, in the same setting: for `Cc1c(C(=O)Nc2ccc(N3C[C@@H](C)O[C@@H](C)C3)nc2)cccc1-c1ccc(OC(F)(F)F)cc1` the value was 109; for `CC[C@@H](C(N)=O)N1CCCC1=O`, 6.2; for `CN1CCN(CCCN2c3ccccc3Sc3ccc(Cl)cc32)CC1.O=C(O)/C=C\C(=O)O.O=C(O)/C=C\C(=O)O`, 95.8. `CCc1cccc(CC)c1NC(=O)N1Cc2[nH]nc(NC(=O)c3ccc(N4CCN(C)CC4)cc3)c2C1`: the viability (top concentration 46.1 µM) worked out at 87.2. On the same count and under the same terms, for `CN1\C(=C(\O)C2=C(C=CS2)[S+]1([O-])=O)C(=O)NC3=CC=CC=N3` the value was 126; for `CC(C)(N)C(=O)N[C@H](COCc1ccccc1)C(=O)N1CCC2(CC1)CN([S+](C)(=O)[O-])c1ccccc12`, 103; for `C1CCN2C[C@H]3C[C@H](\C=C/4CCCN[C@@H]34)[C@H]2C1`, 120.

In the case of `CC1=CC2=C(O1)C(=C3OC(=O)\C=C(C)/C3=C2)C`, the viability (top concentration 46.1 µM) is 111. Same read-out and setting: next, `CC(C)(O)CCc1ccc(OCc2cc(-c3cccc(OC(F)F)c3)c3ncccc3c2)cc1`: 143; `Cc1ccc(C)c(OCCCC(C)(C)C(=O)O)c1`: 108. Still for that read-out and setting: for `CCCCN(CCCC)CC(O)c1cc(Cl)cc2c1-c1ccc(Cl)cc1/C2=C/c1ccc(Cl)cc1` (centres undefined) the value was 104. Still for that read-out and setting: next, `N#Cc1c(NC(=O)c2cccc3ccccc23)sc2c1CCCC2`: 109; `c1ccc2c(-c3cnn4cc(-c5ccc(N6CCNCC6)cc5)cnc34)ccnc2c1`: 2.71; `Cc1ccc([C@@H]2O[C@H](CO)[C@@H](O)[C@H](O)[C@H]2O)cc1Cc1ccc(-c2ccc(F)cc2)s1`: 108. `CCOc1ccccc1OCCNC(C)Cc1ccc(OC)c([S+](N)(=O)[O-])c1` (centres undefined): the viability (top concentration 46.1 µM) turned out to be 135. Same read-out and setting: next, `CCCCc1oc2ccccc2c1C(=O)c1cc(I)c(OCCN(CC)CC)c(I)c1`: 95.4.

`CSC1=CC(=CC=C1)NC2=NC3=C(C=N2)/C=C(C(=O)N3C)/C4=C(Cl)C=CC=C4Cl` displayed a viability (top concentration 46.1 µM) of 107.

Where the note is “top concentration 46.1 µM”, `NCC1(CC(=O)O)CCCCC1` registered a viability of 115. As to `CN[C@@H]1CN(C[C@H]1OC)C2=NC3=C(C=C2)C(=O)C(=C\N3C4=NC=CS4)/C(O)=O`, the viability (top concentration 23 µM) was 94.4. Turning to `Nc1ncnc2c1ncn2[C@@H]1O[C@@H](CO)[C@H](O)[C@@H]1O`, the viability (top concentration 34.6 µM) worked out at 118. Where the note is “top concentration 46.1 µM”, `C[C@H](CCC(=O)O)[C@H]1CC[C@H]2[C@@H]3[C@@H](O)C[C@@H]4C[C@H](O)CC[C@]4(C)[C@H]3CC[C@]12C` came in with a viability of 84.8.

Molecule `CN1CCN(CC1)C2=C3OCN(C)N4\C=C(C(O)=O)/C(=O)C(=C34)C=C2F` displayed a viability (top concentration 46.1 µM) of 123. Under “top concentration 46.1 µM”, `CN[C@@H](C)C(=O)N[C@H]1CCCC[C@H]2CC[C@@H](C(=O)N[C@@H](c3ccccc3)c3cn(CCCCc4ccc(CCCCn5cc([C@@H](NC(=O)[C@@H]6CC[C@@H]7CCCC[C@H](NC(=O)[C@H](C)NC)C(=O)N76)c6ccccc6)nn5)cc4)nn3)N2C1=O` came in with a viability of 110.

Take `Nc1ccc(C(=O)Nc2cccc(-c3nc(N4CCOCC4)c4oc5ncccc5c4n3)c2)cn1`: the viability (top concentration 46.1 µM) came to 101. On the same count and under the same terms, for `CCC(=O)O[C@@]1([C@@H](C)C[C@H]2[C@@H]3CCC/4=C/C(=O)/C=C\[C@]4(C)[C@@]3(F)[C@@H](O)C[C@]12C)C(=O)CCl` the value was 148. As to `O=C(NOC[C@H](O)CO)c1ccc(F)c(F)c1Nc1ccc(I)cc1F`, the viability (top concentration 46.1 µM) was found to be 101. On the same count and under the same terms, next, `CCN(C(=O)C/1=C(O)/C2=C(C=CC=C2Cl)N(C)C1=O)C3=CC=CC=C3`: 119. Same read-out and setting: next, `Cc1c(Cn2c(C)nc3c(C(=O)O)cc(N4CCOCC4)cc32)cccc1C(F)(F)F`: 76.9; `C[C@]12CC[C@H]3[C@@H](CC(=C)\C4=C\C(=O)\C=C/[C@]34C)[C@@H]1CCC2=O`: 112; `COc1cc2c(Nc3ccc(Br)cc3F)ncnc2cc1OCC1CCN(C)CC1`: 52.2. Molecule `CNC[C@H](O)c1ccc(O)c(O)c1` had a viability (top concentration 92.2 µM) of 104. Turning to `CC(C)(C)[C@]1(O)C[C@@H]2OC(=O)C[C@@]23C(=O)O[C@@H]2OC(=O)[C@H](O)C213` (some centres undefined), the viability (top concentration 46.1 µM) is 99.4. On the same count and under the same terms, next, `O=C(/C=C/C=C/c1ccc2c(c1)OCO2)N1CCCCC1`: 114.

For the origin of these results see the supplement of paper PMC6723410.
